Laboratory results: US10392383B2, “3-(1H-benzo[d]imidazol-2-yl)-1H-pyrazolo[4,3-b]pyridines and therapeutic uses thereof” (Samumed, LLC, priority 2015, dated 2019)

How the values were obtained:
[1] = tested on: primary human fibroblasts derived from IPF patients (LL29 cells) treated with TGF-β1; experiment: Inhibition of the fibrotic process: αSMA staining in TGF-β1-treated LL29 fibroblasts; type: cell-based; conditions: Fibroblast, 96 h, LL29 fibroblasts treated with TGF-β1 (20 ng/mL), 4 days, Table 4
Procedure, shortened: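 EC50 from triplicate-well dose-response fits of % αSMA-positive cells, normalized to TGF-β1-stimulated DMSO controls, with SYTOX-positive dead cells excluded. LL29 IPF fibroblasts received compound at 10 μM–1.87 nM (0.1% DMSO) plus 20 ng/mL TGF-β1 for 4 days in 1% FBS medium; above 10 μM, % inhibition at 10 μM reported.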

SW480 colon cancer cells = experiment: Cell viability assay (CellTiter-Blue) in SW480 cells; type: cell-based; conditions: Homo sapiens, 96 h, four days, CellTiter-Blue, 10 μM to 0.0045 μM
Procedure, shortened: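 Resazurin reduction (Ex 560/Em 590 nm, ~3 h reagent incubation) served as the viability read-out after SW480 cells were treated for four days at 37 °C. Doses ran from 10 μM down to 0.0045 μM in eight 1:3 steps. Curves fitted non-linearly for EC50, else % inhibition at 10 μM reported.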

EC50 (SW480 colon cancer cells): 549 nM
Compound: Cc1ncc(-c2ccc3[nH]nc(-c4nc5c(-c6cc(F)cc(NCCN(C)C)c6)cccc5[nH]4)c3n2)n1C [Compound 781, N^1-(3-(2-(5-(1,2-Dimethyl-1H-imidazol-5-yl)-1H-pyrazolo[4,3-b]pyridin-3-yl)-1H-benzo[d]imidazol-4-yl)-5-fluorophenyl)-N^2,N^2-dimethylethane-1,2-diamine]
EC50 [1]: 917 nM
